From the METLIN SMRT retention time set (Domingo-Almenara et al. 2019) come the findings set out here.

This series can be described thus: gradient 5% acetonitrile 3 min, to 50% in 2 min, to 85% in 15 min, held 3 min, 100 µL/min. Conditions: column: Zorbax Extend-C18 2.1 x 50 mm; eluents: water / acetonitrile, 0.1% formic acid. The gist of the method: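 Each retention time is based on an adduct peak selected computationally and verified by manual inspection. Measurements used HPLC–quadrupole time-of-flight mass spectrometry in positive and negative ionization mode on mixtures of ~100 pure standards. Chromatography ran on a Zorbax Extend-C18 column (2.1 × 50 mm, 1.8 μm) at 100 μL/min with water and acetonitrile, each containing 0.1% formic acid, and dead and dwell volumes of 40 μL and 900 μL.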
For `CC(C)N1CCN(Cc2ccc(C(=O)NC3CC3)cc2)C(=O)C1=O`, the RP-LC retention time came out at 604 s.

`Cc1noc(-c2nc(-c3ccncc3)no2)n1` returned an RP-LC retention time of 703 s.

Turning to `COc1ccc(S(=O)(=O)N2CCCC(C(=O)NCCC3=CCCCC3)C2)cc1Cl` (centres undefined), the RP-LC retention time was 1070 s.

Regarding `O=c1n(Cc2cccc(C(F)(F)F)c2)nc2c(S(=O)(=O)N3CCOCC3)cccn12`, the RP-LC retention time was 847 s.

In the case of `CCC(=O)NCc1nc2c(n1CC)CN(S(=O)(=O)c1ccc(Cl)cc1)CC2`, the RP-LC retention time worked out at 538 s.

Take `COc1ccc(-c2nc3cnccn3c2Nc2ccccc2C)cc1`: the RP-LC retention time was 886 s.

`CCOc1ccc(NC(=O)C2CCCN2S(=O)(=O)c2cc3c(cc2C)NC(=O)CO3)cc1` (centres undefined) had an RP-LC retention time of 770 s.

Turning to `Cc1ccc(Oc2nccnc2N2CCCC(C(=O)N3CCN(c4cc(C)ccc4C)CC3)C2)cc1` (centres undefined), the RP-LC retention time came out at 1400 s.

Take `CCOC(=O)c1cnc(N2CCN(c3ccc(OC)cc3)CC2)c2ccccc12`: the RP-LC retention time turned out to be 1080 s.

Compound `CCOc1cc2c(cc1OCC)C1C(C(=O)N3CCOCC3)c3ccccc3C(=O)N1CC2` (centres undefined) gave an RP-LC retention time of 744 s.

`CCc1nc(CN2C(=O)COc3cc(S(=O)(=O)N4CCN(c5ncccn5)CC4)c(C)cc32)no1`: the RP-LC retention time turned out to be 871 s.

In turn, `COCCNC(=O)C1CCCN(c2cc(=O)n(C)c(=O)n2C)C1` (centres undefined) yielded an RP-LC retention time of 567 s.

Turning to `Cc1ccc(-c2nc(-c3ccc(-c4noc(CNS(=O)(=O)c5ccccc5)n4)cc3)cs2)s1`, the RP-LC retention time turned out to be 1290 s.

`Cc1ccccc1Nc1c(-c2cccc(O)c2)nc2cnccn12` gave an RP-LC retention time of 744 s.

Consider `COc1ccccc1CC(=O)Nc1ccc(-c2nc(Cn3nc(C)cc3C)c(C)o2)cc1`, for which the RP-LC retention time turned out to be 924 s.

`CCOC(=O)CCNC(=O)NCc1nnnn1-c1ccc(OCC)cc1` registered an RP-LC retention time of 675 s.

Compound `COC(=O)c1c(NCc2ccccc2Cl)c2ccccc2[nH]c1=O` returned an RP-LC retention time of 766 s.

`Cc1ccccc1NC(=O)NC1CCN(c2ccccc2)C1=O` (centres undefined): the RP-LC retention time is 781 s.

For the compound `CCc1ccc(S(=O)(=O)N2CCC(c3nc(C(=O)N4CCCC4)c(C)o3)CC2)cc1`, the RP-LC retention time was 1010 s.

`CNC(=O)c1ccc(-n2c(C)ccc2C)nc1` had an RP-LC retention time of 697 s.

Compound `Cc1ccn2cc(-c3cccc(S(=O)(=O)N4CC(C)OC(C)C4)c3)nc2c1` (centres undefined) had an RP-LC retention time of 647 s.

`COCc1nnc(NC(=O)c2ccccc2OCc2nc(-c3ccc(C)cc3)no2)s1`: the RP-LC retention time came out at 1060 s.

The compound `O=C(NC1CCCCC1)C1CCN(S(=O)(=O)c2cc(-c3noc(C4CCC4)n3)cs2)CC1` displayed an RP-LC retention time of 1070 s.

For the compound `Cc1cccc(C)c1NC(=O)Cn1c(=O)n(-c2ccccc2)c(=O)c2c1cc(C)n2C`, the RP-LC retention time is 864 s.

Regarding `CC1=C(CO)C(=O)O[C@@H]([C@@H](C)[C@H]2CCC3[C@@H]4C[C@H]5O[C@]56[C@@H](O)C=CC(=O)[C@]6(C)C4CC[C@@]32C)C1` (some centres undefined), the RP-LC retention time was 759 s.

Regarding `O=C(CCCN1C(=O)c2cccnc2Sc2ccccc21)N1CCN(c2ccccn2)CC1`, the RP-LC retention time is 592 s.

The compound `Cc1noc(C)c1CCC(=O)N1CCCCC1c1nncn1C` (centres undefined) showed an RP-LC retention time of 607 s.

As for `CCn1cc(CCN2CCN(C(=O)C3CCCC3)CC2)c2cccnc21`, the RP-LC retention time stood at 597 s.

In turn, `COC(=O)c1ccc2c(=O)n(-c3cccc(OC)c3)c(N3CCCCCC3)nc2c1` gave an RP-LC retention time of 1210 s.

For `Cc1nnc2ccc(-c3noc(Cc4cccc(Cl)c4)n3)cn12`, the RP-LC retention time was 871 s.

The compound `CCOc1ccc(Nc2c(-c3ccccc3)nc3cnccn23)cc1` yielded an RP-LC retention time of 877 s.

In the case of `CCNc1cc(N2CCC(CCC(=O)NC(CC)CC)CC2)ncn1`, the RP-LC retention time amounted to 639 s.

For `Cc1ccc(-n2nc(C)c3c(=O)n(CC(=O)N4CCN(c5cc(Cl)ccc5C)CC4)ccc32)cc1`, the RP-LC retention time amounted to 1100 s.

Take `Fc1ccc(-c2nc(-c3ccc(-n4cccn4)nc3)no2)c(F)c1`: the RP-LC retention time amounted to 1170 s.

`CCCn1c(C)cnc1C1CN(S(=O)(=O)c2cccc(Cl)c2)C1` came in with an RP-LC retention time of 669 s.

Regarding `Cc1ccccc1CNC(=O)Cn1c(C)nc2onc(C)c2c1=O`, the RP-LC retention time was 752 s.

`Cc1cccc2c1ncn1c(=O)n(CC(=O)Nc3ccc4c(c3)OCCO4)nc21` had an RP-LC retention time of 637 s.

Turning to `CNC(Cc1ccccc1)c1ccc(OC)cc1` (centres undefined), the RP-LC retention time came to 567 s.

The compound `Cc1ccc(N2CCC(NC(=O)c3ccc(C#N)cc3)C2=O)cc1C` (centres undefined) yielded an RP-LC retention time of 854 s.

Turning to `COc1ccccc1N1CCN(c2nnc(-c3nnc(C)o3)c3ccccc23)CC1`, the RP-LC retention time amounted to 889 s.

For `Fc1ccc(-c2csc(Cc3nc(-c4ccccc4Cl)no3)n2)cc1`, the RP-LC retention time was determined as 1260 s.

In turn, `O=C(NCCc1ccco1)c1cc2n(n1)CCCN(Cc1ccc(Cl)cc1)C2=O` showed an RP-LC retention time of 857 s.

In the case of `COc1ccccc1OCC(O)COC(N)=O` (centres undefined), the RP-LC retention time came out at 650 s.

For `O=c1ccc(-c2ccccc2Cl)nn1Cc1nc(-c2ccc3c(c2)OCO3)no1`, the RP-LC retention time came to 996 s.

In the case of `Cc1cc(F)ccc1NC(=O)C1CCCN1S(=O)(=O)c1cc2c(cc1C)NC(=O)C(C)O2` (centres undefined), the RP-LC retention time turned out to be 812 s.

Consider `CCOc1ccc(N2C=C(C(=O)N3CCCC3)S(=O)(=O)c3ccccc32)cc1`, for which the RP-LC retention time came to 828 s.

`O=C(Cn1nc2c(SC3CCCCC3)nccn2c1=O)N1CCN(c2ccc(F)cc2)CC1` came in with an RP-LC retention time of 1080 s.

`Cc1ccccc1-c1noc(-c2cccn(CC(=O)NCC3CCCO3)c2=O)n1` (centres undefined): the RP-LC retention time was determined as 729 s.

Regarding `Cc1ccc(NC(=O)CSC2=C(C#N)C(c3cccs3)CC(=O)N2)cc1Cl` (centres undefined), the RP-LC retention time turned out to be 915 s.

As for `CCOC(=O)c1c(C)[nH]c(CCC(=O)NCCc2c[nH]c3ccc(OC)cc23)c1C`, the RP-LC retention time amounted to 837 s.

For the compound `Cc1ccc(-n2nc3c(=O)n(C(C)C(=O)NC4CC4)nc(C)c3c2C)cc1` (centres undefined), the RP-LC retention time was determined as 744 s.

`CCN1c2ccc(C)cc2C(=O)NC12CCN(C(=O)c1cccc(F)c1)CC2`: the RP-LC retention time stood at 835 s.

The compound `Cc1cc2c(c(=O)n(-c3ccc(F)cc3)c(=O)n2CC(=O)Nc2ccc(Br)cc2)n1C` registered an RP-LC retention time of 932 s.

Turning to `CC(C)(C)c1ccc(C(=O)CCCN2CCC(OC(c3ccccc3)c3ccccc3)CC2)cc1`, the RP-LC retention time worked out at 1190 s.

For `O=C(C1CCN(S(=O)(=O)c2cc(-c3noc(C4CCC4)n3)cs2)CC1)N1CCOCC1`, the RP-LC retention time was 863 s.

Compound `CCn1c(=O)c(=O)n(CC(=O)NC(C)Cc2ccco2)c2cccnc21` (centres undefined) showed an RP-LC retention time of 711 s.

Regarding `CC(=O)N1CCCCCCNC(=O)[C@@H]2CCC[C@@H]21`, the RP-LC retention time stood at 624 s.

In turn, `CCOC(=O)C1CCN(Cc2nc(-c3ccc(N4CCCCCC4)nc3)no2)CC1` displayed an RP-LC retention time of 600 s.

With `Cc1ccc(N2CCN(C(=O)C3CC(=O)N(c4cccc(NC(=O)C(C)C)c4)C3)CC2)cc1` (centres undefined), the RP-LC retention time was 802 s.

Compound `NC(=O)C(=O)c1cn(Cc2ccccc2)c2ccccc12` registered an RP-LC retention time of 872 s.

`Cc1cc(-c2nnc(-c3ccc(F)cc3)o2)c(C)n1CC(=O)NC1CCCCC1` came in with an RP-LC retention time of 979 s.

`CNC(=O)N1CCCN(S(C)(=O)=O)CC1` returned an RP-LC retention time of 533 s.

`CC1CCCCN1CCNC(=O)CCC(=O)N1CCc2c(c(C(=O)N3CCCCC3)nn2C)C1` (centres undefined) gave an RP-LC retention time of 585 s.

`CCN1C(=O)C2(CCN(S(=O)(=O)c3cc(Cl)ccc3OC)CC2)c2ccccc21` had an RP-LC retention time of 1000 s.

Compound `Cc1ccc(C2Cn3nnc(-c4nc(-c5ccc6c(c5)OCO6)no4)c3CO2)c(C)c1` (centres undefined) showed an RP-LC retention time of 1250 s.

Compound `CC(C)CNC(=O)CCn1c(=O)c2ccccc2n2c(=O)n(Cc3cccc(F)c3)nc12` gave an RP-LC retention time of 867 s.

`Cc1nn(C)c(C)c1S(=O)(=O)N1CCC(c2noc(-c3cccnc3)n2)C1` (centres undefined) returned an RP-LC retention time of 662 s.

`CC(=O)N1CCCC1c1nc(C2CN(C(=O)NCc3ccco3)C2)no1` (centres undefined) registered an RP-LC retention time of 617 s.

Compound `O=C(NCc1ccc2c(c1)OCO2)c1ccc2ncnc(N3CCOCC3)c2c1` displayed an RP-LC retention time of 605 s.

Turning to `CCSc1nnc(NC(=O)c2csc(Nc3cccnc3)n2)s1`, the RP-LC retention time was found to be 588 s.

`COC(=O)c1nnn(-c2ccccc2C(F)(F)F)c1N` registered an RP-LC retention time of 936 s.

`O=C(CCCn1c(=O)c2cccn2c2ccc(F)cc21)NCCc1c[nH]c2ccccc12` yielded an RP-LC retention time of 858 s.

For the compound `CCCNC(=O)CSc1cn(CC(=O)N2CC(C)OC(C)C2)c2ccccc12` (centres undefined), the RP-LC retention time turned out to be 745 s.

In the case of `O=C(CCn1c(CO)nc2ccccc21)c1ccccc1`, the RP-LC retention time worked out at 578 s.

In the case of `COc1ccc(-c2nc(CN3C(=O)C(O)(c4cccc(F)c4)c4ccccc43)c(C)o2)cc1` (centres undefined), the RP-LC retention time stood at 1040 s.

Consider `Cc1cc(C)cc(Nc2c(-c3cc(Br)ccc3O)nc3ncccn23)c1`, for which the RP-LC retention time was determined as 1140 s.

The compound `Cc1cc(-c2nnc(C3CCC3)o2)c(C)n1CC(=O)NCc1ccc(C(F)(F)F)cc1` registered an RP-LC retention time of 941 s.

With `O=C(C1=CN(c2cccc(Cl)c2)c2cc(F)ccc2S1(=O)=O)N1CCCC1`, the RP-LC retention time turned out to be 868 s.

`COc1cc(CN2C[C@@H](CO)[C@H](N(C)C)C2)ccc1OC(C)C`: the RP-LC retention time came out at 554 s.
